We go through 10 molecules from ChEMBL document CHEMBL1743141, “Membrane transporters in drug development” (Nat Rev Drug Discov, 2010).

Format in all cases: ADME
For data set [1], the target named is T1, Solute carrier family 22 member 2 (Homo sapiens, UniProt O15244).
T1 sequence (O15244 whole entry): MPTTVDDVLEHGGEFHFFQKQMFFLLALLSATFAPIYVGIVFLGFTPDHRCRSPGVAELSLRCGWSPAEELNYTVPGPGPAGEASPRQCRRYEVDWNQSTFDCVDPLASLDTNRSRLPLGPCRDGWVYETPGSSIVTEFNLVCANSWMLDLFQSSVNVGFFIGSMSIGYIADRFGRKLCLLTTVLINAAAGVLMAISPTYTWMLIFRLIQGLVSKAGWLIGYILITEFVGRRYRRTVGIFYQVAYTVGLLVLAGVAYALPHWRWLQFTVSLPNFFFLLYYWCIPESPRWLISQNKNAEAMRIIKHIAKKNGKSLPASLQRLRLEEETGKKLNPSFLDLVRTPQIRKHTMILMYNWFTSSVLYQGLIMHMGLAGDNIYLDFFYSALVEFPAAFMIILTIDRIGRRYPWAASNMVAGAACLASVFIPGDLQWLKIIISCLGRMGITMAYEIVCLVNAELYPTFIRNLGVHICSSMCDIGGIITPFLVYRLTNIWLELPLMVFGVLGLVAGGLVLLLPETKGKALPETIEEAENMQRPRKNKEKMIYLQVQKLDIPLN
In words: Inhibitors of transporters of clinical importance in the absorption and disposition of drugs, OCT2.

Data set [2] has as its target ATP-dependent translocase ABCB1 (Homo sapiens, UniProt P08183). In words: Substrates of transporters of clinical importance in the absorption and disposition of drugs, MDR1.
Data set [3] deals with Phosphatidylcholine translocator ABCB4 (Homo sapiens, UniProt P21439). In words: Substrates of transporters of clinical importance in the absorption and disposition of drugs, MDR3.
Phosphatidylcholine translocator ABCB4, sequence (P21439 whole entry): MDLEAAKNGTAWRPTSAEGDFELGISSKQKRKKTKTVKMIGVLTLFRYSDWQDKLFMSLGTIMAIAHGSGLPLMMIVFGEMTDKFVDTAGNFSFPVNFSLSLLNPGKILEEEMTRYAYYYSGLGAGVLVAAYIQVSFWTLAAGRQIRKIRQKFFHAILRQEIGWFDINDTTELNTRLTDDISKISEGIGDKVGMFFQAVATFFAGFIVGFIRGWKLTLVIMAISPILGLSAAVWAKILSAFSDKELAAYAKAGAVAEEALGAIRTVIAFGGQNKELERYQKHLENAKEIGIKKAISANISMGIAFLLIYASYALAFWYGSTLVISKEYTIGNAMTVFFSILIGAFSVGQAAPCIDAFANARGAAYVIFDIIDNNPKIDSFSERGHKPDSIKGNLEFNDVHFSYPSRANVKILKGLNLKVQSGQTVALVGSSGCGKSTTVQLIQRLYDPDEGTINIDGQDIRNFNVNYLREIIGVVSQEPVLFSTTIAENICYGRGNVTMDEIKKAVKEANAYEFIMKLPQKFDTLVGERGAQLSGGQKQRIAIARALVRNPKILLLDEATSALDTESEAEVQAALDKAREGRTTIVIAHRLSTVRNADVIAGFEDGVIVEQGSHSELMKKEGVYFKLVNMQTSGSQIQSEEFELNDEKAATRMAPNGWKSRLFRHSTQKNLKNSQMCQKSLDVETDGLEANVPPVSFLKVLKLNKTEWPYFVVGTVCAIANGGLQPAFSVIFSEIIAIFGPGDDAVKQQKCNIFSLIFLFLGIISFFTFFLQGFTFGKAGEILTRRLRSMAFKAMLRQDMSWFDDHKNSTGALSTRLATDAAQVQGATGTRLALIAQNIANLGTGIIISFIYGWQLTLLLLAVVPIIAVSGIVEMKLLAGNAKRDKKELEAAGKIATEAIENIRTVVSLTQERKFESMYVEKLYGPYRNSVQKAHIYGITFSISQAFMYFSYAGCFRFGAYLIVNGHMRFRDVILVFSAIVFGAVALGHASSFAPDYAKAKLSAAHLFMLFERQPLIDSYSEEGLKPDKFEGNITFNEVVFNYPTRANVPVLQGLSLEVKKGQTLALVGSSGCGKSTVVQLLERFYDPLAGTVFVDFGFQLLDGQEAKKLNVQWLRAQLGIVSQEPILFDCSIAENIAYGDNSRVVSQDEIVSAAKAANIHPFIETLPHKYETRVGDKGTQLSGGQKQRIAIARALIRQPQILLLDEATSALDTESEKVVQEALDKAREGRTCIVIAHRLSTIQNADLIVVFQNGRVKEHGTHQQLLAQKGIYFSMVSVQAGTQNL
Data set [4] has as its target T2, Solute carrier organic anion transporter family member 1B1 (Homo sapiens, UniProt Q9Y6L6).
T2 sequence (Q9Y6L6 whole entry): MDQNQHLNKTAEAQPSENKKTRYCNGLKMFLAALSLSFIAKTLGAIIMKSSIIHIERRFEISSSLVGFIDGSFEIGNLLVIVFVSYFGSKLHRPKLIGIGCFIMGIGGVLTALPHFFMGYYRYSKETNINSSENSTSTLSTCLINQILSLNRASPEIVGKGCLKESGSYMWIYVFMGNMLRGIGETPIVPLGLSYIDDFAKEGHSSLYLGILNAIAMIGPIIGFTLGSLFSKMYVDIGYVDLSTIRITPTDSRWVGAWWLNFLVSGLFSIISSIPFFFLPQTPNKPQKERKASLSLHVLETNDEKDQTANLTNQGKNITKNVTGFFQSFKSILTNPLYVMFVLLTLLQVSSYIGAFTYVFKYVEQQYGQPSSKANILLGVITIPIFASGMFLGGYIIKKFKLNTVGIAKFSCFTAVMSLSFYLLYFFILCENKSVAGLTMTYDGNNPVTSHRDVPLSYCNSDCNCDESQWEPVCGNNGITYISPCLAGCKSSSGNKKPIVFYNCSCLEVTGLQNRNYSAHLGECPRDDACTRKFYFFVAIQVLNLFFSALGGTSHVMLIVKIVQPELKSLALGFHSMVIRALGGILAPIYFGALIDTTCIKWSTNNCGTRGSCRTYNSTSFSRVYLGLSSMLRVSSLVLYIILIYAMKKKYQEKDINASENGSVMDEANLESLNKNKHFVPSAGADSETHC
In words: Substrates of transporters of clinical importance in the absorption and disposition of drugs, OATP1B1.

In data set [5] the target is T3, Organic anion transporter 3 (Homo sapiens, UniProt Q8TCC7).
T3 sequence (Q8TCC7 whole entry): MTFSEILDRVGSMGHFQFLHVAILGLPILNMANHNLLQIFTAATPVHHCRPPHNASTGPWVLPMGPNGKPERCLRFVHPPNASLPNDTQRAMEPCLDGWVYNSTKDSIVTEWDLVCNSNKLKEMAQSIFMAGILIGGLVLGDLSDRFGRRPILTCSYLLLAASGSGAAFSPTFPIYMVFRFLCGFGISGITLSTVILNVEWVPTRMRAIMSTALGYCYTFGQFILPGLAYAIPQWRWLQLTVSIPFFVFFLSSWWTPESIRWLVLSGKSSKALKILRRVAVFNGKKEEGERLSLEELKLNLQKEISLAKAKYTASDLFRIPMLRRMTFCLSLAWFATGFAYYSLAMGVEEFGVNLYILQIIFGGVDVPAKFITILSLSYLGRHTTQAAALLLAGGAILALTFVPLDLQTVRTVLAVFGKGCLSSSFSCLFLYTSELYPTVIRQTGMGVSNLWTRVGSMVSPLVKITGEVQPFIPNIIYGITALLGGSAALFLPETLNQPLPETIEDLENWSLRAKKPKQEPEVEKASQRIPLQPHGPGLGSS
In words: Substrates of transporters of clinical importance in the absorption and disposition of drugs, OAT3.

Data set [6] deals with T4, Solute carrier organic anion transporter family member 1A2 (Homo sapiens, UniProt P46721).
T4 sequence (P46721 whole entry): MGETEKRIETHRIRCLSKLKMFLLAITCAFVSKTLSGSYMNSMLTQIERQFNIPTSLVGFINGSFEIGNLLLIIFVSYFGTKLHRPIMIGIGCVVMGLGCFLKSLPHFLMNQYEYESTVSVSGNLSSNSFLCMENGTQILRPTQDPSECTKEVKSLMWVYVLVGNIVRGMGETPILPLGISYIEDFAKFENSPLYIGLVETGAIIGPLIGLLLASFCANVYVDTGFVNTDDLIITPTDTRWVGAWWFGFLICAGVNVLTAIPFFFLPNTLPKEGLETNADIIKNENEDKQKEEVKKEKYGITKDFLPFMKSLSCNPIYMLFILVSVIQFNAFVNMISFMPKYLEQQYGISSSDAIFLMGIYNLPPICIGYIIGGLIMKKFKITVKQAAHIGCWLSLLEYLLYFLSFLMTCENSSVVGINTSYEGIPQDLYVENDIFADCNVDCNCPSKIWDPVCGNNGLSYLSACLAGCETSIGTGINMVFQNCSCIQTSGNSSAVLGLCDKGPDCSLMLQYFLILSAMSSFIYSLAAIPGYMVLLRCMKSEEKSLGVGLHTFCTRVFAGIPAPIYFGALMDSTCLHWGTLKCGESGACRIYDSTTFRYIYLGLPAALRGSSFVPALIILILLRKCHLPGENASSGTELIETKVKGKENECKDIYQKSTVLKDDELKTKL
In words: Substrates of transporters of clinical importance in the absorption and disposition of drugs, OATP1A2.

In data set [7] the target is T5, Solute carrier organic anion transporter family member 2B1 (Homo sapiens, UniProt O94956).
T5 sequence (O94956 whole entry): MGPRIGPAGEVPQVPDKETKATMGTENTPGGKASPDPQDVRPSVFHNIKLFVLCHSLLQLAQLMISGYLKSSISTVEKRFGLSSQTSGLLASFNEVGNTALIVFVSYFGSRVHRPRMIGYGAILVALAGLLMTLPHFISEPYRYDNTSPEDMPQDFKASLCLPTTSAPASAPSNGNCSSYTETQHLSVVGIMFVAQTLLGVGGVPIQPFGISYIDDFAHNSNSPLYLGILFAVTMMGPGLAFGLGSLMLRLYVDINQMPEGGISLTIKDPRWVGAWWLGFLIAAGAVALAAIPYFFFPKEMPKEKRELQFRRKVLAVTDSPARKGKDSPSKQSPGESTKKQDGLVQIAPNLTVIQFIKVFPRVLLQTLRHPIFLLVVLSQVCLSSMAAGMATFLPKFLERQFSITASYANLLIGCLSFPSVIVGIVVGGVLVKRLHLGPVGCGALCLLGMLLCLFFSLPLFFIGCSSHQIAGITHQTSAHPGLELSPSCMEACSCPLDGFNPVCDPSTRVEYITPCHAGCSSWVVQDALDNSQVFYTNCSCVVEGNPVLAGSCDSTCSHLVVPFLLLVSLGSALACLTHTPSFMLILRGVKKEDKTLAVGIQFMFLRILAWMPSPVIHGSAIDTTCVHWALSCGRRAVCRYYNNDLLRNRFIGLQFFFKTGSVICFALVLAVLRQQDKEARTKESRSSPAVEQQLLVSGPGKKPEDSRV
In words: Substrates of transporters of clinical importance in the absorption and disposition of drugs, OATP2B1.

For data set [8], the target named is T6, Solute carrier organic anion transporter family member 1B3 (Homo sapiens, UniProt Q9NPD5).
T6 sequence (Q9NPD5 whole entry): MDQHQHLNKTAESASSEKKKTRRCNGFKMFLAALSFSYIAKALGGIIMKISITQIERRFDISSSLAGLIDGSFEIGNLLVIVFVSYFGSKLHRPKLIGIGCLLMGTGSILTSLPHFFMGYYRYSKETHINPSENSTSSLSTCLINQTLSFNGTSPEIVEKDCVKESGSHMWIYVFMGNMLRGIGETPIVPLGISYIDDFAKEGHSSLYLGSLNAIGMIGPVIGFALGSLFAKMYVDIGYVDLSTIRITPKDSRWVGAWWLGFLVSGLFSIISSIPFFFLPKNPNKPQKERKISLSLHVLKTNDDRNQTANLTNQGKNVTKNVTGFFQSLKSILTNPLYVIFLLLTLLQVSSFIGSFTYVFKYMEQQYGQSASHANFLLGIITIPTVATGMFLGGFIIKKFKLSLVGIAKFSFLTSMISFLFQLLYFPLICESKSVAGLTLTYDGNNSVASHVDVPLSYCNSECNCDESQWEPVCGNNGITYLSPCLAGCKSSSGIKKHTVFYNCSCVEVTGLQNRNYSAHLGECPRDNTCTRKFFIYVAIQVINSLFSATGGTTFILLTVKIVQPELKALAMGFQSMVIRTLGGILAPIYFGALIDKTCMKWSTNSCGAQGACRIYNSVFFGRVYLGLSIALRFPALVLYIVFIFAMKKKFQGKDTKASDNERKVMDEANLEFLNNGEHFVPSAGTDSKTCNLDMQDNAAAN
In words: Substrates of transporters of clinical importance in the absorption and disposition of drugs, OATP1B3.

Data set [9] has as its target T1, Solute carrier family 22 member 2. In words: Substrates of transporters of clinical importance in the absorption and disposition of drugs, OCT2.
For data set [10], the target named is T7, Solute carrier family 22 member 1 (Homo sapiens, UniProt O15245).
T7 sequence (O15245 whole entry): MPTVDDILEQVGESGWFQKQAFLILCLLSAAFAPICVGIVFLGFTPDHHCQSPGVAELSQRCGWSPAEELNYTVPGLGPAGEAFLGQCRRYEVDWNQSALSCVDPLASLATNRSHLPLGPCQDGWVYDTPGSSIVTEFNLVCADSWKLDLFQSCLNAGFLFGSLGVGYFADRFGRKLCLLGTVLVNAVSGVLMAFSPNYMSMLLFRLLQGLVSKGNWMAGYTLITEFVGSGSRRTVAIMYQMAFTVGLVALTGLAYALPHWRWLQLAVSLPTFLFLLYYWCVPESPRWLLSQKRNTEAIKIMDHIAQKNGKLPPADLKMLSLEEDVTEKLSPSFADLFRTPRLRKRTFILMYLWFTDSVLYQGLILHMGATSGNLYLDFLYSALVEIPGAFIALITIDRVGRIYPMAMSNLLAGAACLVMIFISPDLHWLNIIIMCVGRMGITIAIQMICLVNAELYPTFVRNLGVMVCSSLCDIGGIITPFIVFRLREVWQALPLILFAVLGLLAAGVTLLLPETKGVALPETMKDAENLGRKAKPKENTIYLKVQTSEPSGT
In words: Substrates of transporters of clinical importance in the absorption and disposition of drugs, OCT1.

ATP-dependent translocase ABCB1, sequence (P08183 whole entry): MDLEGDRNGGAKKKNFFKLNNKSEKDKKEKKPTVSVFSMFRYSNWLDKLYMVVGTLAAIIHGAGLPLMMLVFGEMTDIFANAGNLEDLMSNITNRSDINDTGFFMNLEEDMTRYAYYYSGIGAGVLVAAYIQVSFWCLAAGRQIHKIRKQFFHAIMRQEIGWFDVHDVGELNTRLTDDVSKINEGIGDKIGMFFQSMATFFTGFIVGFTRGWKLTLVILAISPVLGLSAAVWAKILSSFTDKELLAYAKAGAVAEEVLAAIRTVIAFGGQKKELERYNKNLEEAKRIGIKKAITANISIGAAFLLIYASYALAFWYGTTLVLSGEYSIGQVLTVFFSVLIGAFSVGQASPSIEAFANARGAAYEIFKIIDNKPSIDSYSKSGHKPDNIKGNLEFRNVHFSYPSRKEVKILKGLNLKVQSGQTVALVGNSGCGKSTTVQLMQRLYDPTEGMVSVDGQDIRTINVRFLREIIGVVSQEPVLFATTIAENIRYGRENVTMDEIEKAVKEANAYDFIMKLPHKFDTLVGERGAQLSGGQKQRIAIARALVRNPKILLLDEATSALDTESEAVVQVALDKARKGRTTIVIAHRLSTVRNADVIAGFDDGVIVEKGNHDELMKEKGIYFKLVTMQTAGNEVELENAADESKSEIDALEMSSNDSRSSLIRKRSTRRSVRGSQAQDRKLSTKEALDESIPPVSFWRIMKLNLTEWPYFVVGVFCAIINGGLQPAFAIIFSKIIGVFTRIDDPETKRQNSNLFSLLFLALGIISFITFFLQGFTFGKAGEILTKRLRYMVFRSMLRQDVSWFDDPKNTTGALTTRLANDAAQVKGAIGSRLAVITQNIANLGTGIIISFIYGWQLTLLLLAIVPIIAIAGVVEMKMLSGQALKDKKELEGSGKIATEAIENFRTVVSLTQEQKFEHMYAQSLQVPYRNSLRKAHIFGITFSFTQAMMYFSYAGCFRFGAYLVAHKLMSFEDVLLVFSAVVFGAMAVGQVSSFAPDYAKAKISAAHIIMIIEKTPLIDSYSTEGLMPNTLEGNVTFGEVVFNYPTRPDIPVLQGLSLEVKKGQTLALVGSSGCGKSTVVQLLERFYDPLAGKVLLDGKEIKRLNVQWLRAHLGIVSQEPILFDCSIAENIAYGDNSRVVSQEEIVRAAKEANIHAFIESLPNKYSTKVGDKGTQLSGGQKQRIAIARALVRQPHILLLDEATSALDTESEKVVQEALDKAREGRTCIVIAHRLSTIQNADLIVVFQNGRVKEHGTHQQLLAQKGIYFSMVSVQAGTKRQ

For the molecule `O=C(O)COCCN1CCN(C(c2ccccc2)c2ccc(Cl)cc2)CC1` (stereo not given) [CETIRIZINE], the Activity entry in data set [1] is on record as “transporter inhibitor”.
The same measure, in the same setting: as for `CN/C(=N/CCSCc1nc[nH]c1C)NC#N` [CIMETIDINE], the entry is “transporter inhibitor”.
For `C[C@H]1O[C@@H](O[C@H]2[C@@H](O)C[C@H](O[C@H]3[C@@H](O)C[C@H](O[C@H]4CC[C@@]5(C)[C@H](CC[C@@H]6[C@@H]5C[C@@H](O)[C@]5(C)[C@@H](C7=CC(=O)OC7)CC[C@]65O)C4)O[C@@H]3C)O[C@@H]2C)C[C@H](O)[C@@H]1O` [DIGOXIN], the Activity entry in data set [2] and in data set [3] was “transporter substrate” throughout.
Turning to `C[C@]12CC[C@@H]3c4ccc(OS(=O)(=O)O)cc4CC[C@H]3[C@@H]1CCC2=O` [ESTRONE SULFURIC ACID], the Activity result in [4], in [5], in data set [6] and in data set [7] was “transporter substrate” in each case.
In the case of `CC(=O)O[C@H]1C(=O)[C@@]2(C)[C@H]([C@H](OC(=O)c3ccccc3)[C@]3(O)C[C@H](OC(=O)[C@H](O)[C@@H](NC(=O)c4ccccc4)c4ccccc4)C(C)=C1C3(C)C)[C@]1(OC(C)=O)CO[C@@H]1C[C@@H]2O` [PACLITAXEL], the Activity result in data set [2] and in data set [3] was “transporter substrate” throughout.
With `CCCCCCCCCCCCCCSCC(=O)OC[C@H](COP(=O)([O-])OCC[N+](C)(C)C)OC(=O)CSCCCCCCCCCCCCCC` [PHOSPHATIDYLCHOLINE], the Activity entry in data set [3] is given as “transporter substrate”.
As for `Cc1cccc(C)c1NC(=O)CC12CCCN1CCC2` [PILSICAINIDE], in [1], the Activity result is reported as “transporter inhibitor”.
For the molecule `O=C1OC(c2ccc(O)c(S(=O)(=O)[O-])c2)(c2ccc(O)c(S(=O)(=O)[O-])c2)c2c(Br)c(Br)c(Br)c(Br)c21.[Na+].[Na+]` [SULFOBROMOPHTHALEIN SODIUM], the Activity entry in data set [4], in data set [8], in [6] and in [7] was “transporter substrate” in each case.
For the molecule `CC[C@]1(O)C[C@@H]2CN(CCc3c([nH]c4ccccc34)[C@@](C(=O)OC)(c3cc4c(cc3OC)N(C)[C@H]3[C@@](O)(C(=O)OC)[C@H](OC(C)=O)[C@]5(CC)C=CCN6CC[C@]43[C@@H]65)C2)C1` [VINBLASTINE], the Activity result in data set [2] and in [3] was “transporter substrate” in each case.
With OXALIPLATIN, the Activity result in data set [9] and in [10] was “transporter substrate” throughout.
